Earlier results as cited in patent EP1566168A1, “Dermo-cosmetic compositions for depigmenting and use of it” (priority 2004, dated 2005).

What was measured:
[1] = oil
peau = details: applied to the skin

With `CCCCCCCCCCCCCCCC(=O)OCc1cc(=O)c(OC(=O)CCCCCCCCCCCCCCC)co1` [acide dipalmitoylkojique, 2-palmitoyloxy 5-palmitoyloxy γ-pyrone] as the compound, how does the solubilité [1] read?
The solubilité was “soluble dans l'huile”.

And the propriétés irritantes (peau)?
Its propriétés irritantes is “dépourvu de propriétés irritantes”.
